Blank lines part the entries; values can stand above or below the compound they belong to.
Legend:
diabetic patients [1] = assay: Cancer in patients during diabetes mellitus treatment (survey and case reports); assay type: in vivo, human; conditions: person
Excerpt: On the other hand, it is widely known that the insulin itself may increase the risk of the cancer and many cancer patients can be found in the patients of the diabetes mellitus.

diabetic patients [2] = assay: Blood glucose of the patient (casual, postprandial, glycemic control); assay type: in vivo, human
diabetic patients [3] = assay: Side effects and clinical course, opinion of the doctor; assay type: in vivo, human; conditions: person; 4 mg antihypertensive diuretic
Experimental: For each prescription example, the glycemic status of the patient that is dependent on the administered active components and the component amount is measured using HbA1c (glycated hemoglobin) along with changes in the lactic acid value, and opinion of the doctor is recorded together with the change in the values.

diabetic patients [4] = assay: HbA1c (glycated hemoglobin) of the patient under the prescription; assay type: in vivo, human; conditions: person; May 17, 2016, only the new drug (DPP4 inhibitor), before metformin+BCAA
Excerpt: (1) Step to measure HbA1c and lactate levels in patients
(3) Step to measure changes in HbA1c and lactate levels after administration of the composition to the patient,

[5] = confirmed by manufacturers; cited from earlier work

Cancer developed during diabetes mellitus treatment (diabetic patients [1]; Case (9), used until October 2018): A vesical cancer was developed
Cancer developed during diabetes mellitus treatment (diabetic patients [1]; Case (11), 5 mg, March 2019): A liver cancer was developed
SMILES: CC#CCn1c(N2CCC[C@@H](N)C2)nc2c1c(=O)n(Cc1nc(C)c3ccccc3n1)c(=O)n2C [Trazenta]

SMILES: CN(C)C(=N)NC(=N)N.Cl [metformin, metformin hydrochloride]
Lung cancer by PET and MRI (diabetic patients [1]; Case (19), metformin 250 mg after HD from May 2019, after radiation therapy, April 2020): reduction of lung cancer was maintained and there was no metastasis
Blood sugar level (diabetic patients [2]; Case (19), metformin 250 mg after HD, as of August 2020): stable

Cancer developed during diabetes mellitus treatment (diabetic patients [1]; Case (13), treated from 2017, January 2019): A bone cancer was found
SMILES: N[C@@H](CC(=O)N1CCn2c(nnc2C(F)(F)F)C1)Cc1cc(F)c(F)cc1F [JANUVIA, sitagliptin phosphate hydrate]

SMILES: NS(=O)(=O)c1cc2c(cc1Cl)NC(C(Cl)Cl)NS2(=O)=O (stereo not drawn) [fluitran]
Effect on the condition of diabetes mellitus (diabetic patients [3]): worsened the condition of diabetes mellitus

SMILES: Cn1c(=O)cc(N2CCC[C@@H](N)C2)n(Cc2cc(F)ccc2C#N)c1=O [Zafatek]
HbA1c (diabetic patients [4]): 5.6%
postprandial blood glucose (diabetic patients [2]; person, May 9, 2016, before metformin+BCAA was started): 246 mg/dL

SMILES: CC(C)[C@H]1CC[C@H](C(=O)N[C@H](Cc2ccccc2)C(=O)O)CC1 [nateglinide]
Lactic acidosis [5]: do not cause lactic acidosis

SMILES: O=C(O)[C@H](CC(=O)N1C[C@H]2CCCC[C@H]2C1)Cc1ccccc1 [GLUFAST]
Lactic acidosis [5]: do not cause lactic acidosis

Cancer developed during diabetes mellitus treatment (diabetic patients [1]; Case (15), dialysis, used until October 2017, April 2019): A lung cancer was developed
SMILES: Cc1cc(N2CCN([C@@H]3CN[C@H](C(=O)N4CCSC4)C3)CC2)n(-c2ccccc2)n1 [TENELIA]

Cancer developed during diabetes mellitus treatment (diabetic patients [1]; Case (10)): a bowel cancer was developed
SMILES: N#C[C@@H]1CCCN1C(=O)CNC12CC3CC(CC(O)(C3)C1)C2 [Equa]

— patent US11701336B2, “Method of determining composition effective for treating diabetes” (priority 2015, dated 2023)
